Common to all, as to format: cell-based
The subject of assay [1] is human dermal fibroblasts from Huntington's patients. Nature of the assay: Rescue of fibroblasts from Huntington's patients from oxidative stress (Example B). As to conditions: Fibroblast, Huntington's cells (Coriell GM 04281), screen as in Example A (BSO stress), read-out: protection against Huntington's, EC50. How it is done:
[The source words this procedure for another cell line and reports this cell line under the same test.] (§1) Test samples and solvent controls were tested for their ability to rescue FRDA fibroblasts stressed by addition of L-buthionine-(S,R)-sulfoximine (BSO), as described in Jauslin et al., Hum. Mol. Genet. 11(24):3055 (2002), Jauslin et al., FASEB J. 17:1972-4 (2003), and International Patent Application WO 2004/003565. […] This specific BSO-mediated cell death can be prevented by administration of antioxidants or molecules involved in the antioxidant pathway, such as alpha-tocopherol, selenium, or small molecule glutathione peroxidase mimetics. However, antioxidants differ in their potency, i.e. the concentration at which they are able to rescue BSO-stressed FRDA fibroblasts.
(§2) MEM (a medium enriched in amino acids and vitamins, catalog no. 1-31F24-I) and Medium 199 (M199, catalog no. 1-21F22-I) with Earle's Balanced Salts, without phenol red, were purchased from Bioconcept. Fetal Calf Serum was obtained from PAA Laboratories. Basic fibroblast growth factor and epidermal growth factor were purchased from PeproTech. Penicillin-streptomycin-glutamine mix, L-buthionine (S,R)-sulfoximine, and insulin from bovine pancreas were purchased from Sigma. Calcein AM was purchased from Molecular Probes. Cell culture medium was made by combining 125 ml M199 EBS, 50 ml Fetal Calf Serum, 100 U/ml penicillin, 100 μg/ml streptomycin, 2 mM glutamine, 10 μg/ml insulin, 10 ng/ml EGF, and 10 ng/ml bFGF; MEM EBS was added to make the volume up to 500 ml. A 10 mM BSO solution was prepared by dissolving 444 mg BSO in 200 ml of medium with subsequent filter-sterilization. During the course of the experiments, this solution was stored at +4° C. The cells were obtained from the Coriell Cell Repositories (Camden, N.J.; repository number GM04078) and grown in 10 cm tissue culture plates. Every third day, they were split at a 1:3 ratio. […]
(§3) 100 μl of PBS containing 1.2 μM Calcein AM were then added to each well. […] After that time the PBS was discarded, the plate gently tapped on a paper towel and fluorescence (excitation/emission wavelengths of 485 nm and 525 nm, respectively) was read on a Gemini fluorescence reader. […]

Assay [2] concerns Human dermal fibroblasts from Friedreich's ataxia patients. Nature of the assay: Rescue of BSO-stressed FRDA fibroblasts (Example A). The conditions noted are these: FRDA fibroblasts (Coriell GM04078), 1 mM BSO, 48 h, Calcein AM viability, read-out: protection against FRDA, EC50. The method, then: as §1, §2, §3
For assay [3], the system named is human dermal fibroblasts from LHON patients. Kind of assay: Rescue of fibroblasts from LHON patients from oxidative stress (Example C). The conditions noted are these: Fibroblast, LHON cells (Coriell GM03858), screen as in Example A (BSO stress), read-out: protection against LHON, EC50. The method, then: [The source words this procedure for another cell line and reports this cell line under the same test.] as §1
(§4) MEM (a medium enriched in amino acids and vitamins, catalog no. 1-31F24-I) and Medium 199 (M199, catalog no. 1-21F22-I) with Earle's Balanced Salts, without phenol red, were purchased from Bioconcept. Fetal Calf Serum was obtained from PAA Laboratories. Basic fibroblast growth factor and epidermal growth factor were purchased from PeproTech. […]
as §3

Assay [4] deals with human dermal fibroblasts from Parkinson's disease patients. Nature of the assay: Rescue of fibroblasts from Parkinson's disease patients from oxidative stress (Example D). As to conditions: Fibroblast, Parkinson's disease cells (Coriell AG20439), screen as in Example A (BSO stress), read-out: protection against PD, EC50. The method, then:
[The source words this procedure for another cell line and reports this cell line under the same test.] as §1, §4, §3

Consider 3 compounds from US20140031432A1, “TREATMENT OF MITOCHONDRIAL DISEASES WITH VITAMIN K” (Ampere Life Sciences, Inc., priority 2010, published 2014).

On to `CC(C)=CCC/C(C)=C/CC/C(C)=C/CC/C(C)=C/CC1=C(C)C(=O)c2ccccc2C1=O` [2-methyl-3-[3,7,11,15-tetramethylhexadeca-2,6,10,14-tetraen-1-yl]naphthoquinone], for which the EC50 in assay [1] is below 500 nM; in assay [2] it was below 1000 nM.

As to `CC(C)=CCCC(C)=CCC1=C(C)C(=O)c2ccccc2C1=O` [2-(3,7-dimethylocta-2,6-dien-1-yl)-3-methylnaphthalene-1,4-dione], the concentration for a half-maximal effect (EC50) is below 500 nM in assay [1], below 1000 nM in assay [2], below 300 nM in assay [3] and below 500 nM in assay [4].

Turning to `CC1=CC(=O)c2ccccc2C1=O` [2-methylnaphthalene-1,4-dione], the 50% effective concentration (EC50) in assay [1] is below 500 nM; in assay [2] it was below 1000 nM; in assay [3] it was below 300 nM; in assay [4], below 500 nM.
